From PubChem BioAssay AID463204 (Broad Institute, 2010)
Calls of active or inactive are those of the source.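 Rule for the calls: active = AC50 no more than ten times the top concentration tested, that is within one log above it; inconclusive = flat curve fit with activity between 30% and 70%, or invalid poor fit; inactive = AC50 beyond ten times the top tested dose.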

system: S. cerevisiae Mot1-301 ts growth rescue, BacTiter-Glo ATP luminescence; assay: growth rescue of Mot1-301 ts yeast, confirmation, SUMOylation pathway inhibitor project, whole organism, S. cerevisiae, Mot1-301 ts mutant, luminescence, dose retest (AID 463204);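 note: growth at restrictive 38.5 degrees C of Mot1-301 OY566 strain; actives raise luminescence by restoring growth of the ts mutant at high temperature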

SMILES	AC50
CN(CC(=O)Nc1sccc1C#N)Cc1ccccc1	> 42 µM (inactive)
CCOC(=O)c1ccc(CNC(=O)Cn2nnc(-c3ccc(C)cc3)n2)o1	> 42 µM (inactive)
CC1=C(C)CS(=O)N(S(=O)(=O)c2ccc(Cl)cc2)C1 (stereo not given)	3.41 µM
Cc1ccc(-c2nc(-c3cccnc3)sc2CC(=O)O)cc1	> 42 µM (inactive)
Cc1cnc(=O)[nH]c1SCC(=O)c1ccc(F)cc1	> 42 µM (inactive)
Cc1ccccc1C(=O)NNC(=O)/C=C\C(=O)O	> 42 µM (inactive)
CCOc1cc(/C=N/NC(=O)C(=O)N/N=C/c2ccc(O)c(OCC)c2)ccc1O	> 42 µM (inactive)
O=C(COC(=O)c1cc([N+](=O)[O-])ccc1N1CCOCC1)Nc1cccc(F)c1	> 42 µM (inactive)
O=C1CCCC2=C1C(c1ccncc1)c1c(nc(SCc3ccccc3Cl)[nH]c1=O)N2 (stereo not given)	> 42 µM (inactive)
O=S(=O)(Nc1cccc2cn[nH]c12)c1ccc(F)cc1	> 42 µM (inactive)
c1ccc(CNc2ccc3ccccc3n2)nc1	> 42 µM (inactive)
O=C(O)COc1ccc(Br)cc1/C=N\Nc1ccccn1	> 42 µM (inactive)
CC(C)C/C(=N/O)c1c[nH]c2ccccc12	> 42 µM (inactive)
CCCCC(=O)NC(=S)Nc1cccc(C(=O)O)c1	> 42 µM (inactive)
COc1ccc(NC2CCCN(C(=O)CCc3scnc3C)C2)cc1 (stereo not given)	> 42 µM (inactive)
CCN1C(=S)N[C@@H](c2cccs2)C(C(=O)OC)=C1C	> 42 µM (inactive)
COc1ccc(S(=O)(=O)NCC(=O)N(CC(=O)NCc2ccco2)Cc2ccccc2)cc1	> 42 µM (inactive)
CCN(C(=O)Cn1nc(C)c([N+](=O)[O-])c1C)c1c(N)n(Cc2ccccc2)c(=O)[nH]c1=O	> 42 µM (inactive)
Cc1ccc(C)n1-c1ccc(N(C)C)cc1	> 42 µM (inactive)
N#Cc1c(NC(=O)c2ccc([N+](=O)[O-])o2)sc2c1CCC2	40.1 µM
COC(CNC(=O)c1cn(C)c2ccc(S(=O)(=O)N3CCOCC3)cc2c1=O)OC	> 42 µM (inactive)
CCC1CCCCN1CCCNC(=O)C1CCC(CNS(=O)(=O)c2c(C)cc(C)cc2C)CC1 (stereo not given)	> 42 µM (inactive)
N#Cc1cc2c(nc1SCc1cccnc1)CCC2	> 42 µM (inactive)
O=C(NC1CCCC1)C(c1cccs1)N(C(=O)c1ccno1)c1ccccc1 (stereo not given)	> 42 µM (inactive)
Cc1ccc(/C=C/C(=O)O)cc1S(=O)(=O)N(CCO)CCO	> 42 µM (inactive)

SMILES	AC50
O=C(CCCC(=O)N/N=C/c1ccccc1C(=O)O)N/N=C/c1ccccc1C(=O)O	> 42 µM (inactive)
CCCOc1ccccc1C1NC(=O)NC(C)=C1C(=O)OCCOCC (stereo not given)	> 42 µM (inactive)
CCOC(=O)C1=Nc2ccccc2C1=[N+]=[N-]	36.7 µM
COc1ccc(OC)c(N(CC(=O)N2CCCC2)S(=O)(=O)c2ccccc2)c1	> 42 µM (inactive)
C=CCSc1nnc2c(n1)[nH]c1c(C)cccc12	> 42 µM (inactive)
O=C(NNS(=O)(=O)c1c(F)cc(F)c(Cl)c1F)C12CC3CC(CC(C3)C1)C2	3.45 µM
COc1ccc(/C=C/C(=O)NC(=S)Nc2ccccn2)cc1	> 42 µM (inactive)
COc1ccc(NC(=O)Cn2c(=O)cnc3ccccc32)cc1S(=O)(=O)N1CCCCC1	> 42 µM (inactive)
Fc1ccccc1-n1cc(-c2ccccc2)[nH]c1=S	> 42 µM (inactive)
CCOC(=O)c1ccc(NC(=O)c2c(NC(=O)CCC(=O)O)sc3c2CCCCC3)cc1	> 42 µM (inactive)
S=c1[nH]ccn1-c1cccc(Cl)c1	> 42 µM (inactive)
O=C1c2ccccc2C(=O)N1CCSc1ccccc1	> 42 µM (inactive)
COC(=O)c1cccc(NC(=O)CN(c2ccc3c(c2)OCO3)S(C)(=O)=O)c1C	> 42 µM (inactive)
CC(C)(C)C(=O)NC1(C(F)(F)F)NC(=O)N(c2ccccc2F)C1=O (stereo not given)	> 42 µM (inactive)
COc1ccc(N2CCN(C(=O)CNC(=O)Cc3ccc(Cl)cc3)CC2)cc1	> 42 µM (inactive)
O=[N+]([O-])c1cccc(-c2nc3ccc([N+](=O)[O-])cc3[nH]2)c1	> 42 µM (inactive)
CCOC(=O)CS(=O)(=O)c1ccc2ccccc2c1	> 42 µM (inactive)
COc1cccc(CN(C)C(=O)C2CCC(=O)N(Cc3cccc(F)c3)C2)c1 (stereo not given)	> 42 µM (inactive)
COc1ccc(C(=O)c2c(C)c3cc(C)ccc3n2CC(O)CN2CCOCC2)cc1 (stereo not given)	> 21 µM (inactive)
Cc1sc(NC(=O)c2ccc(F)cc2)c(CN2CCCCCC2)c1C	> 42 µM (inactive)
Cc1ccc(CNC(=O)CCn2cc(-c3ccc(C)cc3)nc2CCN)cc1	> 42 µM (inactive)
CC1CC(C)(C)NC(=S)N1CC(=O)NCc1ccc(F)cc1 (stereo not given)	> 42 µM (inactive)
CCOC(=O)c1sc(NC(=O)CSc2n[nH]c(-c3ccc(Cl)cc3Cl)n2)c(C#N)c1C	> 42 µM (inactive)
Cc1cc(C)cc(OCC(=O)Nc2ccc(N3CCN(C(=O)c4ccco4)CC3)cc2)c1	> 42 µM (inactive)
CCOC(=O)c1c(C)[nH]c(O)c1C=Nc1ccccc1	> 42 µM (inactive)
